Measured values published in ChEMBL document CHEMBL1131699, “Monoacetyldiglycerides as new Ca2+ mobilizing agents in rat pancreatic acinar cells” (1999).
Activity calls are given as the source filed them. No cut-off for these calls is given here.

Columns and labels:
[1] = organism: Rattus norvegicus; assay: Compound was tested in vitro for its ability to increase [Ca+2] in pancreatic acinar cells at a concentration of 0.01 mg/mL; Active; format: functional, cell-based
[2] = organism: Rattus norvegicus; assay: Compound was tested in vitro for its ability to increase [Ca+2] in pancreatic acinar cells at a concentration of 0.01 mg/mL.; format: functional
[3] = organism: Rattus norvegicus; assay: Compound was tested in vitro for its ability to increase the rate of [Ca+2] mobilization in pancreatic acinar cells; format: functional

SMILES | Increase in [Ca+2] [1] | Increase in [Ca+2] [2] [nM] | Rate of [Ca+2] increase [3] [nM/min]
CC/C=C\C/C=C\C/C=C\CCCCCCCC(=O)OC(COC(C)=O)COC(=O)CCCCCCCCCCCCCCC (centres undefined) | Active | – | –
CCCCCCCC/C=C\CCCCCCCC(=O)OCC(COC(C)=O)OC(=O)CCCCCCCCCCCCCCC (centres undefined) | – | 31.2 | –
CCCCCCCCCCCCCCCC(=O)OCC(COC(C)=O)OC(=O)[C@H]1C[C@@H]1c1ccccc1 (some centres undefined) | Active | – | –
CCCCCCCC/C=C\CCCCCCCC(=O)OC(COC(C)=O)COC(=O)CCCCCCCCCCCCCCC (centres undefined) | – | 26.6 | –
CCCCC/C=C\C/C=C\CCCCCCCC(=O)OC(COC(C)=O)COC(=O)CCCCCCCCCCCCCCC (centres undefined) [MOSEDIPIMOD] | – | 84.9 | 9.8
CCCCC/C=C\C/C=C\C/C=C\C/C=C\CCCC(=O)OC(COC(C)=O)COC(=O)CCCCCCCCCCCCCCC (centres undefined) | – | 32.8 | –
CC/C=C\C/C=C\C/C=C\C/C=C\C/C=C\C/C=C\CCC(=O)OC(COC(C)=O)COC(=O)CCCCCCCCCCCCCCC (centres undefined) | – | 75.2 | 26.7
